In ChEMBL document CHEMBL1201862, “PubChem BioAssay data set” (2004):
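Five compound concentrations were applied to cells in 96-well plates for 48 hours; endpoints were derived by simple linear interpolation of the resulting dose-response curve. Here, GI50 denotes the concentration required for 50% inhibition of growth.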 Calls of active or inactive are those of the source. Rule as the data show it: active = GI50 up to about 1.1 µM and inactive = higher.

Key:
Test in all cases: NCI tumour cell line growth inhibition, 48 h
ACHN = system: ACHN
HCC 2998 = system: HCC 2998
HCT-116 = system: HCT-116
HOP-92 = system: HOP-92
HT-29 = system: HT-29
IGROV-1 = system: IGROV-1
MCF7 = system: MCF7
MDA-MB-435 = system: MDA-MB-435
Malme-3M = system: Malme-3M
NCI/ADR-RES = system: NCI/ADR-RES
OVCAR-3 = system: OVCAR-3
OVCAR-5 = system: OVCAR-5
PC-3 = system: PC-3
SK-MEL-28 = system: SK-MEL-28
SNB-19 = system: SNB-19
T47D = system: T47D
U-251 = system: U-251
UACC-62 = system: UACC-62
NCI-H460 = system: NCI-H460
SR = system: SR

| Structure (SMILES) | GI50 (ACHN) | GI50 (HCC 2998) | GI50 (HCT-116) | GI50 (HOP-92) | GI50 (HT-29) | GI50 (IGROV-1) | GI50 (MCF7) | GI50 (MDA-MB-435) | GI50 (Malme-3M) | GI50 (NCI/ADR-RES) | GI50 (OVCAR-3) | GI50 (OVCAR-5) | GI50 (PC-3) | GI50 (SK-MEL-28) | GI50 (SNB-19) | GI50 (T47D) | GI50 (U-251) | GI50 (UACC-62) | GI50 (NCI-H460) | GI50 (SR) |
| --- | --- | --- | --- | --- | --- | --- | --- | --- | --- | --- | --- | --- | --- | --- | --- | --- | --- | --- | --- | --- |
| Nc1nc(N)c2ncn(-c3ccc(Cl)c(Cl)c3)c2n1 | 42.2 µM (inactive) | 27.4 µM (inactive) | 16.1 µM (inactive) | 52.7 µM (inactive) | 22.2 µM (inactive) | 16.2 µM (inactive) | 40.1 µM (inactive) | 33.7 µM (inactive) | 17.9 µM (inactive) | 37.7 µM (inactive) | 14.5 µM (inactive) | 42.7 µM (inactive) | 24.1 µM (inactive) | 60.5 µM (inactive) | 57 µM (inactive) | 42.1 µM (inactive) | 25.9 µM (inactive) | 10.1 µM (inactive) | – | – |
| C[Si](C)(C)c1ccc(-c2c3ccc(-c4cc(Br)cc(Br)c4)nc3nc3nc(-c4cc(Br)cc(Br)c4)ccc23)cc1 | > 100 µM (inactive) | > 100 µM (inactive) | > 100 µM (inactive) | > 100 µM (inactive) | – | – | > 100 µM (inactive) | > 100 µM (inactive) | > 100 µM (inactive) | > 100 µM (inactive) | > 100 µM (inactive) | > 100 µM (inactive) | > 100 µM (inactive) | > 100 µM (inactive) | > 100 µM (inactive) | > 100 µM (inactive) | > 100 µM (inactive) | > 100 µM (inactive) | > 100 µM (inactive) | – |
| Cn1c(SCc2ccc([N+](=O)[O-])cc2)nnc1C12CC3CC(CC(C3)C1)C2 | > 10 µM (inactive) | > 10 µM (inactive) | > 10 µM (inactive) | > 10 µM (inactive) | > 10 µM (inactive) | > 10 µM (inactive) | > 10 µM (inactive) | > 10 µM (inactive) | > 10 µM (inactive) | > 10 µM (inactive) | > 10 µM (inactive) | > 10 µM (inactive) | > 10 µM (inactive) | > 10 µM (inactive) | > 10 µM (inactive) | > 10 µM (inactive) | > 10 µM (inactive) | > 10 µM (inactive) | > 10 µM (inactive) | – |
| O=C1c2ccccc2/C=C\C(c2ccccc2)=N/N1c1ccccc1Cl | 26.4 µM (inactive) | 30.3 µM (inactive) | 28.1 µM (inactive) | 26.5 µM (inactive) | 17.5 µM (inactive) | 29.4 µM (inactive) | 21.5 µM (inactive) | 3.44 µM (inactive) | 23.3 µM (inactive) | 15.9 µM (inactive) | 27.5 µM (inactive) | 72.3 µM (inactive) | 6.73 µM (inactive) | 24 µM (inactive) | 19.1 µM (inactive) | – | 21.7 µM (inactive) | – | 28.6 µM (inactive) | > 10 µM (inactive) |
| CC(=O)OCC(OC(C)=O)C1C[C@H]2O[C@@H]3[C@H](C[C@H]2O1)O[C@@]1(C[C@@H]3C)C[C@H](C)[C@@H]2O[C@]3(C[C@@H]2O1)C[C@H]1O[C@H]2[C@H](C)[C@H]4OC(=O)C[C@H]5CC[C@@H]6OC7[C@H]8O[C@]9(CC[C@H]%10CC(=O)[C@H](CC[C@H]%11C[C@@H](C)C(=O)C(C[C@@H]4O[C@H]2C[C@H]1O3)O%11)O%10)CC8O[C@@H]7[C@@H](O9)[C@H]6O5 (stereo not given in full) | 0.0627 µM (active) | 0.003 µM (active) | 0.00234 µM (active) | 0.0611 µM (active) | – | 0.00322 µM (active) | 0.00151 µM (active) | 0.000195 µM (active) | – | 0.102 µM (active) | 0.00319 µM (active) | – | 0.00337 µM (active) | 0.011 µM (active) | 0.0101 µM (active) | – | 0.00506 µM (active) | 0.00248 µM (active) | 0.00315 µM (active) | 0.000233 µM (active) |
| O=C(NCc1ccc(Cl)cc1)c1cc2sccc2nc1C(F)(F)F | 20.6 µM (inactive) | – | 33.3 µM (inactive) | 37.7 µM (inactive) | > 100 µM (inactive) | 29.6 µM (inactive) | 61 µM (inactive) | > 100 µM (inactive) | 42.3 µM (inactive) | 39.1 µM (inactive) | 26.9 µM (inactive) | > 100 µM (inactive) | 48 µM (inactive) | 55.7 µM (inactive) | 22.5 µM (inactive) | > 100 µM (inactive) | 18.9 µM (inactive) | 35.2 µM (inactive) | – | 39.9 µM (inactive) |
| COc1ccc(-c2c(C#N)c(N)nc(S)c2C#N)cc1 | 71 µM (inactive) | 23.4 µM (inactive) | 29.4 µM (inactive) | 40.6 µM (inactive) | 48.6 µM (inactive) | 24.7 µM (inactive) | 39.2 µM (inactive) | 17.3 µM (inactive) | 29.9 µM (inactive) | 50 µM (inactive) | 64.7 µM (inactive) | > 100 µM (inactive) | 27.5 µM (inactive) | 37.7 µM (inactive) | 57.7 µM (inactive) | – | 40.5 µM (inactive) | 41.5 µM (inactive) | 31 µM (inactive) | 18.3 µM (inactive) |
| CC1(C)c2ccccc2C(=O)C12CCC(=O)CC2 | > 100 µM (inactive) | > 100 µM (inactive) | > 100 µM (inactive) | – | > 100 µM (inactive) | > 100 µM (inactive) | > 100 µM (inactive) | – | 60.5 µM (inactive) | > 100 µM (inactive) | – | > 100 µM (inactive) | > 100 µM (inactive) | > 100 µM (inactive) | > 100 µM (inactive) | > 100 µM (inactive) | > 100 µM (inactive) | > 100 µM (inactive) | > 100 µM (inactive) | > 100 µM (inactive) |
| CCOC(=O)N/N=C(\Cc1ccc([N+](=O)[O-])cc1)OCC | > 100 µM (inactive) | > 100 µM (inactive) | > 100 µM (inactive) | > 100 µM (inactive) | > 100 µM (inactive) | > 100 µM (inactive) | > 100 µM (inactive) | > 100 µM (inactive) | – | > 100 µM (inactive) | > 100 µM (inactive) | > 100 µM (inactive) | > 100 µM (inactive) | – | > 100 µM (inactive) | – | > 100 µM (inactive) | > 100 µM (inactive) | – | > 100 µM (inactive) |
| CN(C)CCCSc1nc2ccccc2[nH]1 | > 100 µM (inactive) | > 100 µM (inactive) | > 100 µM (inactive) | > 100 µM (inactive) | > 100 µM (inactive) | > 100 µM (inactive) | > 100 µM (inactive) | > 100 µM (inactive) | > 100 µM (inactive) | > 100 µM (inactive) | > 100 µM (inactive) | > 100 µM (inactive) | – | > 100 µM (inactive) | > 100 µM (inactive) | > 100 µM (inactive) | > 100 µM (inactive) | > 100 µM (inactive) | > 100 µM (inactive) | > 100 µM (inactive) |
| CC(=O)O[C@H]1C[C@]2(O)[C@@H]3CC[C@@H]4C[C@@H](O)CC[C@]4(C)[C@H]3CC[C@]2(C)[C@H]1C1=CC(=O)OC1 | 0.031 µM (active) | 0.161 µM (active) | 0.033 µM (active) | 0.192 µM (active) | 0.0986 µM (active) | 0.103 µM (active) | – | 0.179 µM (active) | 0.036 µM (active) | 0.074 µM (active) | 0.0389 µM (active) | 0.182 µM (active) | 0.0662 µM (active) | 0.324 µM (active) | 0.381 µM (active) | 0.222 µM (active) | 0.128 µM (active) | 0.211 µM (active) | 0.0289 µM (active) | 0.0315 µM (active) |
| Cn1c(=O)c2c(nc3n2CCC(=O)N3CCCCl)n(C)c1=O | > 100 µM (inactive) | > 100 µM (inactive) | > 100 µM (inactive) | > 100 µM (inactive) | > 100 µM (inactive) | > 100 µM (inactive) | – | > 100 µM (inactive) | – | > 100 µM (inactive) | > 100 µM (inactive) | > 100 µM (inactive) | > 100 µM (inactive) | > 100 µM (inactive) | > 100 µM (inactive) | > 100 µM (inactive) | > 100 µM (inactive) | > 100 µM (inactive) | > 100 µM (inactive) | > 100 µM (inactive) |
| O=C(CN1CCOCC1)c1ccc2c(c1)oc(=O)n2CCN1CCCC1 | > 100 µM (inactive) | – | > 100 µM (inactive) | – | > 100 µM (inactive) | > 100 µM (inactive) | > 100 µM (inactive) | > 100 µM (inactive) | > 100 µM (inactive) | > 100 µM (inactive) | > 100 µM (inactive) | > 100 µM (inactive) | > 100 µM (inactive) | > 100 µM (inactive) | > 100 µM (inactive) | – | > 100 µM (inactive) | > 100 µM (inactive) | > 100 µM (inactive) | > 100 µM (inactive) |
| CN(C)c1ccc([S+]([O-])Nc2ccccc2)cc1 (stereo not given) | 29.6 µM (inactive) | 34.6 µM (inactive) | 26.6 µM (inactive) | – | 76.4 µM (inactive) | 30 µM (inactive) | 29.4 µM (inactive) | 21.1 µM (inactive) | 49.8 µM (inactive) | 22.1 µM (inactive) | > 100 µM (inactive) | > 100 µM (inactive) | – | > 100 µM (inactive) | 60.1 µM (inactive) | 19.1 µM (inactive) | 19.3 µM (inactive) | 22.5 µM (inactive) | 27.5 µM (inactive) | 31.6 µM (inactive) |
| CCN(CC)CCNC(=O)c1cc2cc(NC(=O)c3cc4cc(N)ccc4[nH]3)ccc2[nH]1 | > 100 µM (inactive) | 17.1 µM (inactive) | 16 µM (inactive) | 24 µM (inactive) | 30.6 µM (inactive) | – | 15.1 µM (inactive) | 17.7 µM (inactive) | – | > 100 µM (inactive) | – | > 100 µM (inactive) | – | > 100 µM (inactive) | 49.3 µM (inactive) | 20.3 µM (inactive) | 25.6 µM (inactive) | 23.4 µM (inactive) | 34.6 µM (inactive) | 5.9 µM (inactive) |
